Where two headings read alike, the source gives them in different places.
Legend:
[1] = Aqueous stability (hydrolysis) by UV-Vis kinetic scan in 10% MeOH (aq); type: physicochemical
Method: Since biological systems are comprised of water, the behavior and stability of a drug in aqueous media is important. To determine the stability, each complex was dissolved in MeOH and then diluted to 10% MeOH (aq). The solutions were then monitored by UV-Vis spectroscopy using a kinetic scan in the range 190–1100 nm over 1 hour. […] Hydrolysis was also supported by RP-HPLC in which new peaks emerged corresponding to the starting ferrocene precursors, F2 and F4. […] […] The major difference being between C1/C2 and C3/C4 is the nature of the linkage either being an ester or an amide bond. It is expected that the hydrolysis of C2 would occur quicker due to the more labile nature of the ester bond.
UV-Vis studies were performed by dissolving each complex in methanol to a concentration of 1 mM. This was then diluted using distilled water in a 10% methanol/water mixture giving a final concentration of 100 μM. The complexes were then monitored using a kinetic scan between the range 190–1100 nm scanning each minute over the course of one hour. […]

T. gondii (ΔKu80:mNeon) = test: Immunofluorescence microscopy of intracellular T. gondii; type: cell-based, Toxoplasma gondii; settings: 5 μM; for Parasite replication: 24 hours
Method: To determine morphological changes associated with drug treatment, immunofluorescence microscopy of T. gondii was performed after 24 hours or 48 hours of drug treatment at a concentration of 5 μM.
Since artemisinin has previously been reported to accumulate in the membrane of P. falciparum due to its affinity for neutral lipids,[46] it was hypothesized that the complex C3 may be doing the same thing in T. gondii. Then, upon activation of the endoperoxide bridge, this causes oxidative damage to the membranes, leading to disruption and release of parasite cytosolic contents.
Coverslips preseeded with HFF cells were infected with ΔKu80:mNeonGreen and incubated at 37 °C for 1 h to allow invasion. Following this, drug (5 μM) was added, and the plates placed back in the incubator for 24 hours. Cells were washed with 1 mL of sterile PBS, which was then again removed and 500 μL of 4% paraformaldehyde (PFA) was added and incubated at room temperature for 20 minutes. The PFA was removed, cell washed once with PBS. Cells were blocked and permeabilisated with incubation 500 μL of 2% bovine serum albubin (BSA), 0.5% Triton X-100 in PBD overnight at 4 °C. The coverslips were then removed and submerged in distilled water three times and mounted using Fluoromount with DAPI (Southern Biotech). The slides were then visualized using a DeltaVision fluorescent microscope (Applied Precision) and processed using SoftWoRx and FIJI software.

[2] = test system: T. gondii (ΔKu80::mNeonGreen); test: T. gondii growth inhibition assay (mNeonGreen fluorescence); type: cell-based, Toxoplasma gondii; settings: three independent experiments in triplicate, ± SEM
Method: […]. The rate of hydrolysis of C2 and C4 is closely correlated to the activity seen against T. gondii, such that the more readily the complex separates into its constituents, parts the better the overall activity.
To further investigate whether the accumulation of ROS was implicated in the MoA, the growth inhibition studies were repeated in the presence of the ROS scavenger N-acetyl cysteine (NAC) (Table 5).
Growth inhibition assays were performed in black, clear-bottomed 96 well plates preseeded with Human foreskin fibroblasts (HFFs) as described previously.[48] ΔKu80:mNeonGreen T. gondii were counted using a hemeocytometer and media from the host-cell seeded plate was aspirated and replaced with either 200 μL of D3 or 200 μL of media + 5000 parasites per well. Infected cells were incubated for 2 hours at 37 °C with 5% CO2 to allow for invasion. Following this, the media was removed and replaced with 100 μL fresh media. 100 μL of media containing 100 μM of the indicated drug in sterile DMSO was added and serially diluted. The parasites were then incubated for four days at 37 °C with 5% CO2 then flourescense read using the PHERAstar microplate reader. After removal of background, fluorescence values were normalised to untreated and plotted. Data analysis and non-linear regression was performed in Prism.

[3] = Stability on HPLC in an aqueous environment; type: physicochemical; settings: aqueous environment (H2O/MeOH)
Method: Resonances belonging to the unsubstituted cyclopentadienyl ring of the ferrocene appeared as a singlet between 4.17 and 4.20 ppm and two triplets which correspond to the substituted ring.
Purity analysis was performed on an Agilent 1260 Infinity II high-performance liquid chromatography (HPLC) system with a DAD detector. A Kinetex C18 100 Å column was used with dimensions, 150 × 4.6 mm with a 5 μm […]. A mobile phase of (A) H2O (B) MeOH was used at gradients of t = 0 min 10% B, t = 15 min 80% B, t = 35 min 80% B, t = 37 min 10% B and t = 45 min 10% B over a 45 min period. The flow rate was set to 1 mL min^−1, and the detection wavelength was set at 260 nm with the reference wavelength at 360 nm. 50 μL sample was injected, with needle washes of MeOH between injections. The peaks were manually integrated to gain the percentage area. Samples were dissolved in 10% MeOH/90% H2O at 100 μM concentrations.

[4] = test system: P. falciparum Dd2 (chloroquine resistant); parameters: method as in doi:10.1016/j.jorganchem.2023.122633; settings: chloroquine resistant strain; cited from earlier work
[5] = test system: P. falciparum 3D7 (chloroquine sensitive); parameters: method as in doi:10.1016/j.jorganchem.2023.122633; settings: chloroquine sensitive strain; cited from earlier work
[6] = no curve could be fitted within one hour
[7] = four days, in HFF host cells, read-out: IC50 against T. gondii
[8] = with 5 mM NAC (ROS scavenger), read-out: IC50 + NAC against T. gondii
[9] = change in absorbance at 254 nm over one hour, ExpDec1 fit

| Structure (SMILES) | Half-life [1, 6] | Parasite replication (T. gondii (ΔKu80:mNeon)) | IC50 [2, 7] | IC50 [2, 8] | Stability on HPLC [3] | Parasite morphology (T. gondii (ΔKu80:mNeon); 24 hours or 48 hours) | Activity against P. falciparum Dd2 [4] | Activity against P. falciparum 3D7 [5] | Half-life [1, 9] | Rate constant (hydrolysis) [1, 9] |
| --- | --- | --- | --- | --- | --- | --- | --- | --- | --- | --- |
| CC1CCC2C(C)C(OC(=O)CCC(=O)OCCNC(=O)[c-]3cccc3)OC3OC4(C)CCC1C32OO4.[Fe+2].c1cc[cH-]c1 (centres unmarked) [Compound C1] | >1 h | completely block replication | 0.68 ± 0.031 µM | 0.83 ± 0.13 µM |  |  |  |  |  |  |
| CC1CCC2C(C)C(OC(=O)CCC(=O)NCCNC(=O)[c-]3cccc3)OC3OC4(C)CCC1C32OO4.[Fe+2].c1cc[cH-]c1 (centres unmarked) [Compound C3] | >1 h | completely block replication | 1.2 ± 0.064 µM | 1.5 ± 0.14 µM | high degree of instability | novel morphology |  |  |  |  |
| CC1CCC2C(C)C(OC(=O)CCC(=O)NC[c-]3cccc3)OC3OC4(C)CCC1C32OO4.[Fe+2].c1cc[cH-]c1 (centres unmarked) [Compound C4] |  |  | 0.6 ± 0.035 µM | 1.2 ± 0.179 µM | high degree of instability |  | 3.0 nM | 6.1 nM | 0.155 ± 0.0035 h | 0.074 ± 0.0016 min⁻¹ |

From article PMC10628858, “Investigation of new ferrocenyl-artesunate derivatives as antiparasitics” (Dalton Transactions (Cambridge, England : 2003), 2023)
